From patent US12593865B2, “Member for flavor inhalation article, flavor inhalation article, phenol scavenger for flavor inhalation article, and method for producing flavor inhalation article” (Japan Tobacco Inc., priority 2019, dated 2026)

Tests used:
[1] = physchem
[2] = Octanol/water partition coefficient Log P at 25° C.; conditions: for logP: n-octanol/water
[3] = Distance between Hansen solubility parameter of the substance and that of phenol, HSP (phenol); type: physicochemical; conditions: distance to Hansen solubility parameter of phenol, 25° C.
From the text: The Hansen solubility parameter is obtained by decomposing solubility parameter δt (SP) introduced by a person into dispersion force contribution term δd between molecules, dipole interaction contribution term δp between molecules, and hydrogen bond contribution term δh between molecules, thereby extending an applicable substance to a polar substance and a substance generating hydrogen bonding. […] The relationship between the solubility parameter δt and the three contribution terms is shown in the following formula: […]
The three parameters of the dispersion force contribution term δd, the dipole interaction contribution term δp, and the hydrogen bond contribution term δh can be regarded as coordinates in a three-dimensional space with the respective parameters as axes. Since various substances have specific HSPs at a specified temperature, HSPs of these substances are represented as points at different positions in the three-dimensional space as shown in FIG. 1. The solubility (compatibility) between given substance i and another substance j is considered to be higher as distance Rij between two points represented by the following formula becomes smaller.
Accordingly, a magnitude of influence of given substance X on phenol selective filtering performance can be evaluated by obtaining a distance between a position of HSP of phenol and a position of HSP of the given substance X in the three-dimensional space. In the present specification and claims, the distance Rij obtained from the Hansen solubility parameter of phenol and the Hansen solubility parameter of the given substance X according to the above formula is defined as HSP (phenol).

[4] = Dropping point DP of the substance (JIS K2220:2013); type: physicochemical
Protocol: A substance having a dropping point (DP) of 50° C. or higher is less likely to be fluidized under relatively high temperature storage conditions, e.g., in a vending machine having a high temperature. […] Furthermore, when the phenol scavenger contains a substance that is less likely to leak out from a filter or the like, the substance is likely to remain in the filter or the like, and therefore, a member having excellent phenol selective filtering performance can be realized. […] The dropping point of the substance is preferably in a range from 50° C. to 130° C. When the dropping point of the substance is excessively high, the phenol scavenger containing the substance may not be easily carried by a filter or the like, which is not preferable. The dropping point of the substance can be measured according to JIS K2220:2013.
In general, a “dropping point” is a physical property specified for a substance that is semisolid at room temperature such as grease, but a “dropping point” herein is a physical property specified not only for a substance that is semisolid at room temperature but also for a substance that is solid at room temperature. A dropping point of a substance that is solid at room temperature is, for example, equal to its melting point.

| Structure (SMILES) | Vapor Pressure (Pa) at 25° C. [Pa] | logP [2] | HSP (phenol) [3] | dropping point DP [4] [°C] | Partition Coefficient Log P at 25° C. ([2]; octanol/water, 25° C.) | logP [1] |
| --- | --- | --- | --- | --- | --- | --- |
| CC(O)CCO (centres unmarked) [1,3-butanediol] | 8 | – | – | – | – | -0.74 |
| CC(O)CO (centres unmarked) [Propylene glycol, propylene glycol, reference compound] | – | – | 8 | – | – | – |
| CC1=C(O)C(=O)CC1 [Cyclotene, cyclotene] | – | 0.22 | 5.37 | 71 | – | – |
| O=C(O)c1ccccc1 [Benzoic acid, benzoic acid] | – | – | 5.17 | 122 | – | – |
| Cc1occc(=O)c1O [Maltol, maltol] | – | -0.26 | 6.89 | 78 | – | – |

Continued, in another order:

| Vapor Pressure (Pa) at 25° C. [Pa] | logP [2] | HSP (phenol) [3] | dropping point DP [4] [°C] | Partition Coefficient Log P at 25° C. ([2]; octanol/water, 25° C.) | Structure (SMILES) | logP [1] |
| --- | --- | --- | --- | --- | --- | --- |
| – | 1.26 | – | – | – | CCOC(=O)CCC(=O)OCC [Diethyl succinate, diethyl succinate, reference compound] | – |
| 0 | – | 7.18 | 4 | 0.25 | CC(=O)OCC(COC(C)=O)OC(C)=O [Triacetin, triacetin, reference compound] | – |
| 0 | 1.54 | 5.56 | 54 | – | COc1cc(CCC(C)=O)ccc1O [Zingerone, zingerone] | – |
